Structures are written as SMILES. Structures can show the parent of a compound that is named as a salt.

The data set in a line: RP, Waters CORTECS UPLC C18, 100 × 2.1 mm, 1.6 µm, 40 °C, 0.4 mL/min, estimated dead time 0.55 min; A: water + 0.1% formic acid, pH 3; B: acetonitrile + 0.1% formic acid, pH 3; gradient (min/%B) 0/5 1.12/5 6.41/99.5 10.01/99.5. As to conditions: stereoisomer not certain.
Turning to `COc1cc(OC)nc(Oc2cccc(Oc3nc(OC)cc(OC)n3)c2C(=O)[O-])n1.[Na+]` [Bispyribac sodium salt], the LC retention time was 4.63 min.

In the case of `CC(C)(C)C(O)C(Oc1ccc(-c2ccccc2)cc1)n1cncn1` (stereo not given) [Bitertanol], the LC retention time was 5.14 min.

As for `O=C(Nc1ccccc1-c1ccc(Cl)cc1)c1cccnc1Cl` [Boscalid], the LC retention time was 4.99 min.

As for `CCCCc1c(C)nc(NCC)nc1OS(=O)(=O)N(C)C` [Bupirimate], the LC retention time was 3.29 min.

Turning to `CC(C)N1C(=O)N(c2ccccc2)CSC1=NC(C)(C)C` [Buprofezin], the LC retention time is 5.45 min.

Turning to `CCCC[n+]1cccc(S(=O)(=O)[O-])c1` [C4-APS], the LC retention time is 1.11 min.

For the compound `CCCCC[n+]1cccc(S(=O)(=O)[O-])c1` [C5-APS], the LC retention time is 2.31 min.

Take `CCCCCC[n+]1cccc(S(=O)(=O)[O-])c1` [C6-APS]: the LC retention time is 2.9 min.

As for `CCCCCCC[n+]1cccc(S(=O)(=O)[O-])c1` [C7-APS], the LC retention time was 3.32 min.

For `CCCCCCCC[n+]1cccc(S(=O)(=O)[O-])c1` [C8-APS], the LC retention time was 3.67 min.

Take `CCCCCCCCC[n+]1cccc(S(=O)(=O)[O-])c1` [C9-APS]: the LC retention time was 3.99 min.

With `CCCCCCCCCC[n+]1cccc(S(=O)(=O)[O-])c1` [C10-APS], the LC retention time was 4.29 min.

Turning to `CCCCCCCCCCC[n+]1cccc(S(=O)(=O)[O-])c1` [C11-APS], the LC retention time was 4.59 min.

As to `CCCCCCCCCCCC[n+]1cccc(S(=O)(=O)[O-])c1` [C12-APS], the LC retention time was 4.89 min.

As to `CCCCCCCCCCCCC[n+]1cccc(S(=O)(=O)[O-])c1` [C13-APS], the LC retention time is 5.19 min.

On to `CCCCCCCCCCCCCC[n+]1cccc(S(=O)(=O)[O-])c1` [C14-APS], for which the LC retention time is 5.49 min.

Take `CCCCCCCCCCCCCCC[n+]1cccc(S(=O)(=O)[O-])c1` [C15-APS]: the LC retention time is 5.78 min.

Regarding `CCCCCCCCCCCCCCCC[n+]1cccc(S(=O)(=O)[O-])c1` [C16-APS], the LC retention time is 6.07 min.

In the case of `CCCCCCCCCCCCCCCCC[n+]1cccc(S(=O)(=O)[O-])c1` [C17-APS], the LC retention time was 6.34 min.

For the compound `CCCCCCCCCCCCCCCCCC[n+]1cccc(S(=O)(=O)[O-])c1` [C18-APS], the LC retention time is 6.58 min.

For the compound `CCCCCCCCCCCCCCCCCCC[n+]1cccc(S(=O)(=O)[O-])c1` [C19-APS], the LC retention time was 6.81 min.

Take `CCCCCCCCCCCCCCCCCCCC[n+]1cccc(S(=O)(=O)[O-])c1` [C20-APS]: the LC retention time was 7 min.

In the case of `Cn1c(=O)c2c(ncn2C)n(C)c1=O` [CAFFEINE], the LC retention time was 2.52 min.

For the compound `CC12CCC(=O)C=C1CCC1C2CCC2(C)C1CCC2(O)C(=O)CO` (stereo not given) [CORTEXOLONE], the LC retention time was 4.05 min.

Regarding `CC(=O)OCC(=O)C1(O)CCC2C3CCC4=CC(=O)CCC4(C)C3C(O)CC21C` (stereo not given) [CORTISOL 21-ACETATE], the LC retention time is 4.25 min.

For the compound `CC12CCC(=O)C=C1CCC1C2C(O)CC2(C)C1CCC2(O)C(=O)CO` (stereo not given) [CORTISOL], the LC retention time was 3.67 min.

As to `CC12CCC(=O)C=C1CCC1C2C(=O)CC2(C)C1CCC2(O)C(=O)CO` (stereo not given) [CORTISONE], the LC retention time was 3.69 min.

As to `CNC(=O)Oc1cccc2ccccc12` [Carbaryl], the LC retention time was 3.14 min.

Take `COC(=O)Nc1nc2ccccc2[nH]1` [Carbendazim]: the LC retention time was 2.38 min.

Regarding `CNC(=O)Oc1cccc2c1OC(C)(C)C2` [Carbofuran], the LC retention time is 4.09 min.

For `CCCCN(CCCC)SN(C)C(=O)Oc1cccc2c1OC(C)(C)C2` [Carbosulfan], the LC retention time is 6.87 min.

`CC1=C(C(=O)Nc2ccccc2)SCCO1` [Carboxin]: the LC retention time was 4.3 min.

As to `CCOC(=O)C(Cl)Cc1cc(-n2nc(C)n(C(F)F)c2=O)c(F)cc1Cl` (stereo not given) [Carfentrazone-ethyl], the LC retention time is 5.39 min.

For `CC(CCC(=O)O)C1CCC2C3C(O)CC4CC(O)CCC4(C)C3CCC12C` (stereo not given) [Chenodeoxycholic acid], the LC retention time is 5.12 min.

Consider `CNC(=O)c1cc(Cl)cc(C)c1NC(=O)c1cc(Br)nn1-c1ncccc1Cl` [Chlorantraniliprole], for which the LC retention time was 4.63 min.

With `Nc1cnn(-c2ccccc2)c(=O)c1Cl` [Chloridazon], the LC retention time is 3.17 min.

Take `Cc1ccc(NC(=O)N(C)C)cc1Cl` [Chlorotoluron]: the LC retention time is 4.15 min.

Regarding `CN(C)C(=O)Nc1ccc(Oc2ccc(Cl)cc2)cc1` [Chloroxuron], the LC retention time was 4.84 min.

With `COP(=S)(OC)Oc1nc(Cl)c(Cl)cc1Cl` [Chlorpyriphos-methyl], the LC retention time is 5.73 min.

On to `COc1nc(C)nc(NC(=O)NS(=O)(=O)c2ccccc2Cl)n1` [Chlorsulfurson], for which the LC retention time is 4.12 min.

As for `Clc1ccccc1-c1nnc(-c2ccccc2Cl)nn1` [Clofentezine], the LC retention time is 5.65 min.

Turning to `CC1(C)CON(Cc2ccccc2Cl)C1=O` [Clomazone], the LC retention time is 4.64 min.

`CCOP(=S)(OCC)Oc1ccc2c(C)c(Cl)c(=O)oc2c1` [Coumaphos]: the LC retention time was 5.6 min.

As for `Cc1ccc(-c2c(Cl)nc(C#N)n2S(=O)(=O)N(C)C)cc1` [Cyazofamid], the LC retention time is 5.39 min.

Regarding `CN(C)C(=O)NC1CCCCCCC1` [Cycluron], the LC retention time is 4.22 min.

`Cc1ccc(N=c2sccn2C)c(C)c1` [Cymiazol hydrochloride]: the LC retention time is 3.22 min.

With `CC(C1CC1)C(O)(Cn1cncn1)c1ccc(Cl)cc1` (stereo not given) [Cyproconazole], the LC retention time is 4.78 min.

For the compound `Cc1cc(C2CC2)nc(Nc2ccccc2)n1` [Cyprodinil], the LC retention time was 4.68 min.

`CC(=O)OCC(=O)C1CCC2C3CCC4=CC(=O)CCC4(C)C3CCC12C` (stereo not given) [DEOXYCORTICOSTERONE ACETATE]: the LC retention time was 5.2 min.

In the case of `Nc1nc2c(ncn2C2CC(O)C(CO)O2)c(=O)[nH]1` (stereo not given) [DEOXYGUANOSINE], the LC retention time was 0.751 min.

With `CC1NC(=O)NC1CCCCCC(=O)O` (stereo not given) [DETHIOBIOTIN], the LC retention time was 2.9 min.

`CCCCCCCCCC(=O)OC(CC(=O)[O-])C[N+](C)(C)C` [Decanoyl-L-carnitine]: the LC retention time was 4.21 min.

For `CCN(CC)C(=O)c1cccc(C)c1` [Deet], the LC retention time was 4.37 min.

As for `CC(CCC(=O)O)C1CCC2C3C(=O)CC4CC(=O)CCC4(C)C3CC(=O)C12C` (stereo not given) [Dehydrocholic acid], the LC retention time was 4.13 min.

Consider `CC(CCC(=O)O)C1CCC2C3CCC4CC(O)CCC4(C)C3CC(O)C12C` (stereo not given) [Deoxycholic acid], for which the LC retention time was 5.22 min.

On to `CC(C)=CCCC(C)C1CCC2C3CC=C4CC(O)CCC4(C)C3CCC12C` (stereo not given) [Desmosterol], for which the LC retention time is 6.81 min.

As to `CCOP(=S)(OCC)Oc1cc(C)nc(C(C)C)n1` [Diazinon], the LC retention time is 5.73 min.

As to `COP(=O)(OC)OC=C(Cl)Cl` [Dichlorvos], the LC retention time was 3.89 min.

On to `CCOc1ccc(NC(=O)OC(C)C)cc1OCC` [Diethofencarb], for which the LC retention time is 4.83 min.

Regarding `CC1COC(Cn2cncn2)(c2ccc(Oc3ccc(Cl)cc3)cc2Cl)O1` (stereo not given) [Difenoconazole], the LC retention time is 5.46 min.

Consider `O=C(NC(=O)c1c(F)cccc1F)Nc1ccc(Cl)cc1` [Diflubenzuron], for which the LC retention time is 5.11 min.

As to `CC12CCC(O)CC1CCC1C2CC(O)C2(C)C(C3=CC(=O)OC3)CCC12O` (stereo not given) [Digoxigenin], the LC retention time was 2.45 min.

As to `COCCN(C(=O)CCl)c1c(C)cccc1C` [Dimethachlor], the LC retention time is 4.55 min.

As for `CNC(=O)CSP(=S)(OC)OC` [Dimethoate], the LC retention time is 3.27 min.

In the case of `CNC(=O)C(=NOC)c1ccccc1COc1cc(C)ccc1C` [Dimoxystrobin], the LC retention time is 5.25 min.

For `CC(C)(C)C(O)C(=Cc1ccc(Cl)cc1Cl)n1cncn1` (stereo not given) [Diniconazole], the LC retention time was 5.27 min.

Turning to `CNC(=N[N+](=O)[O-])NCC1CCOC1` (stereo not given) [Dinotefuran], the LC retention time is 2.2 min.

`CC1CCC2(OC1)OC1CC3C4CC=C5CC(O)CCC5(C)C4CCC3(C)C1C2C` (stereo not given) [Diosgenin]: the LC retention time was 7.3 min.

For `CCOP(=S)(OCC)Oc1nc(Cl)c(Cl)cc1Cl` [Dursban], the LC retention time is 6.17 min.

Consider `CCOC(=O)Cc1c[nH]c2ccccc12` [ETHYL 3-INDOLEACETATE], for which the LC retention time was 4.49 min.

Regarding `Fc1ccc(C2(Cn3cncn3)OC2c2ccccc2Cl)cc1` (stereo not given) [Epoxiconazol], the LC retention time was 4.94 min.

Consider `CCOP(=S)(OCC)SCSP(=S)(OCC)OCC` [Ethion], for which the LC retention time was 6.19 min.

On to `CCCCc1c(C)nc(NCC)[nH]c1=O` [Ethirimol], for which the LC retention time is 3.01 min.

Consider `CCOC1Oc2ccc(OS(C)(=O)=O)cc2C1(C)C` (stereo not given) [Ethofumesate], for which the LC retention time was 5.04 min.

As to `CCCSP(=O)(OCC)SCCC` [Ethoprop], the LC retention time was 5.02 min.

With `Cc1cc2nc3c(=O)[nH]c(=O)nc-3n(CC(O)C(O)C(O)COP(=O)(O)OP(=O)(O)OCC3OC(n4cnc5c(N)ncnc54)C(O)C3O)c2cc1C` (stereo not given) [FAD], the LC retention time is 2.34 min.

Take `Nc1nc2ncc(CNc3ccc(C(=O)NC(CCC(=O)O)C(=O)O)cc3)nc2c(=O)[nH]1` (stereo not given) [FOLATE]: the LC retention time was 2.38 min.

In the case of `CSC1=NC(C)(c2ccccc2)C(=O)N1Nc1ccccc1` (stereo not given) [Fenamidone], the LC retention time was 4.96 min.

For the compound `CCOP(=O)(NC(C)C)Oc1ccc(SC)c(C)c1` (stereo not given) [Fenamiphos], the LC retention time was 4.89 min.

For `OC(c1ccc(Cl)cc1)(c1cncnc1)c1ccccc1Cl` (stereo not given) [Fenarimol], the LC retention time is 4.86 min.

These data come from the RepoRT retention time repository.
